US7351690B2, “Knockout identification of target-specific sites in peptides” (priority 2000, dated 2008)
Square brackets hold non-standard residues; d marks the D form. Ends that are not written are not given here. pGlu = O=C1CC[C@@H](C(=O)O)N1; Nle = CCCC[C@H](N)C(=O)O

system: bombesin receptor; test: competitive binding assay, 125I-Bombesin, rat brain membranes; conditions: not given
Experimental: Rat brain membranes were utilized as the source of bombesin receptor. The competitive binding assay was performed using a procedure as described by Moody T W, Perk C B, Rivier J, Brown, M R. (Proc Natl Acad Sci USA. 75:5372-5376, […]) and adapted to a 96 well format. An aliquot of membranes taken in assay buffer (50 mM Tris and HCl, pH 7.4 containing 1 mg/mL BSA and 2 μg/mL bacitracin) was incubated with 0.01 nM of ^125I-Bombesin with or without varying concentrations of the test compound for 60 min at 4° C. The incubation was terminated by rapid filtration of the assay mixture, followed by washing the filters with ice-cold buffer. The filters were dried and counted in a gamma counter for retained radioactivity. Non-specific binding was measured by including 1 μM Bombesin in the assay tube. The assay was performed in triplicate and results calculated to determine percentage inhibition of the ^125I-Bombesin binding to its receptors by a test compound. The parent polypeptide is shown in Table 6, with metallopeptides having Cys inserted as shown.

Substance | binding to bombesin receptor, in words
Pyr-Gln-Arg-Leu-Gly-Asn-Gln-Cys-Ala-Val-Gly-His-Leu-Nle-NH2 (QRLGNQCAVGHL; N-term pyroglutamate; Nle-NH2; rhenium complex; printed: Gln-Arg-Leu-Gly-Asn-Gln-Cys-Ala-Val-Gly-His-Leu-) [7-7] | Complete inactivity

same assay, conditions: inhibition of 0.01 nM 125I-Bombesin binding; rat brain membranes; test concentration not given

Substance | % Inhibition [%]
Pyr-Gln-Arg-Cys-Gly-Asn-Gln-Trp-Ala-Val-Gly-His-Leu-Nle-NH2 (QRCGNQWAVGHL; N-term pyroglutamate; Nle-NH2; rhenium complex; printed: Gln-Arg-Cys-Gly-Asn-Gln-Trp-Ala-Val-Gly-His-Leu-) [7-11] | 95
Pyr-Gln-Arg-Cys-Leu-Gly-Asn-Gln-Trp-Ala-Val-Gly-His-Leu-Nle-NH2 ([pGlu]QRCLGNQWAVGHL[Nle]-NH2; numbers in words are those of the source; also: oxorhenium(V) N3S1 chelate (Re(V)=O)) [6-12] | 97
Pyr-Gln-Arg-Leu-Gly-Asn-Cys-Gln-Trp-Ala-Val-Gly-His-Leu-Nle-NH2 ([pGlu]QRLGNCQWAVGHL[Nle]-NH2; numbers in words are those of the source; also: oxorhenium(V) N3S1 chelate (Re(V)=O)) [6-9] | 91
Pyr-Gln-Arg-Leu-Gly-Asn-Cys-Trp-Ala-Val-Gly-His-Leu-Nle-NH2 (QRLGNCWAVGHL; N-term pyroglutamate; Nle-NH2; rhenium complex; printed: Gln-Arg-Leu-Gly-Asn-Cys-Trp-Ala-Val-Gly-His-Leu-) [7-8] | 84
Pyr-Gln-Arg-Leu-Gly-Asn-Gln-Cys-Ala-Val-Gly-His-Leu-Nle-NH2 (QRLGNQCAVGHL; N-term pyroglutamate; Nle-NH2; rhenium complex; printed: Gln-Arg-Leu-Gly-Asn-Gln-Cys-Ala-Val-Gly-His-Leu-) [7-7] | −2
Pyr-Gln-Arg-Leu-Gly-Asn-Gln-Cys-Trp-Ala-Val-Gly-His-Leu-Nle-NH2 ([pGlu]QRLGNQCWAVGHL[Nle]-NH2; numbers in words are those of the source; also: oxorhenium(V) N3S1 chelate (Re(V)=O)) [6-8] | 75
Pyr-Gln-Arg-Leu-Gly-Asn-Gln-Trp-Ala-Cys-Gly-His-Leu-Nle-NH2 (QRLGNQWACGHL; N-terminal pyroglutamate; C-terminal Nle-amide; printed: Gln-Arg-Leu-Gly-Asn-Gln-Trp-Ala-Cys-Gly-His-Leu-) [7-5] | 61
Pyr-Gln-Arg-Leu-Gly-Asn-Gln-Trp-Ala-Cys-Val-Gly-His-Leu-Nle-NH2 ([pGlu]QRLGNQWACVGHL[Nle]-NH2; numbers in words are those of the source; also: oxorhenium(V) N3S1 chelate (Re=O) with Cys) [6-6] | 83
Pyr-Gln-Arg-Leu-Gly-Asn-Gln-Trp-Ala-Val-Cys-Gly-His-Leu-Nle-NH2 ([pGlu]QRLGNQWAVCGHL[Nle]-NH2; numbers in words are those of the source; also: oxorhenium(V) N3S1 chelate (Re=O) with Cys) [6-5] | 67
Pyr-Gln-Arg-Leu-Gly-Asn-Gln-Trp-Ala-Val-Cys-His-Leu-Nle-NH2 (QRLGNQWAVCHL; N-terminal pyroglutamate; C-terminal Nle-amide; printed: Gln-Arg-Leu-Gly-Asn-Gln-Trp-Ala-Val-Cys-His-Leu-) [7-4] | 81
Pyr-Gln-Arg-Leu-Gly-Asn-Gln-Trp-Ala-Val-Gly-Cys-His-Leu-Nle-NH2 ([pGlu]QRLGNQWAVGCHL[Nle]-NH2; numbers in words are those of the source; also: oxorhenium(V) N3S1 chelate (Re=O) with Cys) [6-4] | 70
Pyr-Gln-Arg-Leu-Gly-Asn-Gln-Trp-Ala-Val-Gly-Cys-Leu-Nle-NH2 (QRLGNQWAVGCL; N-terminal pyroglutamate; C-terminal Nle-amide; printed: Gln-Arg-Leu-Gly-Asn-Gln-Trp-Ala-Val-Gly-Cys-Leu-) [7-3] | 82
Pyr-Gln-Arg-Leu-Gly-Asn-Gln-Trp-Ala-Val-Gly-His-Cys-Leu-Nle-NH2 ([pGlu]QRLGNQWAVGHCL[Nle]-NH2; numbers in words are those of the source; also: rhenium complex (oxorhenium(V) N3S1 chelate via Cys)) [6-3] | 71
Pyr-Gln-Arg-Leu-Gly-Asn-Gln-Trp-Ala-Val-Gly-His-Cys-Nle-NH2 (QRLGNQWAVGHC; N-term pyroglutamate; Nle-NH2; rhenium complex; printed: Gln-Arg-Leu-Gly-Asn-Gln-Trp-Ala-Val-Gly-His-Cys-) [7-2] | 66
Pyr-Gln-Arg-Leu-Gly-Asn-Gln-Trp-Ala-Val-Gly-His-Leu-Cys-NH2 (QRLGNQWAVGHLC; N-term pyroglutamate; C-terminal amide; rhenium complex; printed: Gln-Arg-Leu-Gly-Asn-Gln-Trp-Ala-Val-Gly-His-Leu-Cys-) [7-1] | 73
Pyr-Gln-Arg-Leu-Gly-Asn-Gln-Trp-Ala-Val-Gly-His-Leu-Cys-Nle-NH2 (QRLGNQWAVGHLC; N-term pyroglutamate; Nle-NH2; rhenium complex; printed: Gln-Arg-Leu-Gly-Asn-Gln-Trp-Ala-Val-Gly-His-Leu-Cys-) [6-2] | 91
Pyr-Gln-Arg-Leu-Gly-Asn-Gln-Trp-Ala-Val-Gly-His-Leu-Nle-Cys-NH2 ([pGlu]QRLGNQWAVGHL[Nle]C-NH2; numbers in words are those of the source; also: rhenium complex (oxorhenium(V) N3S1 tetradentate chelate via Re=O core)) [6-1] | 82
Pyr-Gln-Arg-Leu-Gly-Asn-Gln-Trp-Cys-Ala-Val-Gly-His-Leu-Nle-NH2 ([pGlu]QRLGNQWCAVGHL[Nle]-NH2; numbers in words are those of the source; also: rhenium complex (oxorhenium(V) N3S1 tetradentate chelate via Re=O core)) [6-7] | 62
Pyr-Gln-Arg-Leu-Gly-Asn-Gln-Trp-Cys-Val-Gly-His-Leu-Nle-NH2 (QRLGNQWCVGHL; N-terminal pyroglutamate; C-terminal Nle-amide; printed: Gln-Arg-Leu-Gly-Asn-Gln-Trp-Cys-Val-Gly-His-Leu-) [7-6] | 91
Pyr-Gln-Arg-Leu-Gly-Cys-Asn-Gln-Trp-Ala-Val-Gly-His-Leu-Nle-NH2 ([pGlu]QRLGCNQWAVGHL[Nle]-NH2; numbers in words are those of the source; also: rhenium complex (oxorhenium(V) N3S1 tetradentate chelate via Re=O core)) [6-10] | 93
Pyr-Gln-Arg-Leu-Gly-Cys-Gln-Trp-Ala-Val-Gly-His-Leu-Nle-NH2 (QRLGCQWAVGHL; N-term pyroglutamate; Nle-NH2; rhenium complex; printed: Gln-Arg-Leu-Gly-Cys-Gln-Trp-Ala-Val-Gly-His-Leu-) [7-9] | 93
Trp-Ala-Val-Cys-His-Leu-Leu-NH2 (WAVCHLL-NH2; not fully specified (bridges); printed as Trp-Ala-Val-Cys-His-Leu-Leu-NH2; also: oxorhenium(V) N3S1 chelate (Re=O) with Cys) [11-5] | 18
